Results reported in PMC12458024, “Stabilizing a Native Fold of Alpha-Synuclein with Short Helix-Constrained Peptides” (JACS Au, 2025).
“Also recorded” adds a separate entry of the source. Positions of bridges follow the written chain, without caps; N, C: chain ends. Residues, ends and D or L forms follow the SMILES beside them.

Legend:
circular dichroism = conditions: 20 mM phosphate; pH 6.5; 30 °C; 20 uM
[1] = Circular dichroism: fractional helicity with and without DMPS SUVs (lipid binding); type: physicochemical; conditions: CD, 20 μM peptide, 20 mM phosphate buffer pH 6.5, 30 °C, mean of three independent measurements; for Fractional helicity (fH) with DMPS: 1000 μM DMPS vesicles; for Fractional helicity (fH) no DMPS: no lipid
Description: Far UV CD spectra scans were then recorded of the solutions on a Chirascan V100 (Applied Photophysics), at 30 °C, in a 1 mm path length quarts cuvette, scanning from 280–190 nm with a 1 nm bandwidth, averaged over 3 scans and blanked against the solutions containing the relevant DMPS vesicles in 20 mM phosphate buffer (pH 6.5).
Fractional helicity (fH) was calculated according to the equation fH=(θ222−θc)/(θ222∞−θc) where θ222∞ = (−44,000 + 250T)*(1 – k/Nr) and θc = 2220 – 53T. In these equations, the wavelength-dependent constant k = 2.4, Nr = the number of residues, and T is the temperature, 30 °C. ,

αS1–140 = target: T1, αS1–140 (Homo sapiens, UniProt P37840); assay: Lipid-induced αS aggregation assay (ThT kinetics); type: biochemical; conditions: 100 μM αS1–140, 50 μM ThT, 50 μM DMPS SUVs, 20 mM phosphate pH 6.5, 30 °C; peptide 100 and 500 μM; n = 3
T1 construct: pET21a plasmid encoding human wild-type αS1–140; made in house; host or cells: E. coli BL21 (DE3)
Description: Dry DMPS lipid powder was accurately weighed using a Sartorius ultramicro balance and dissolved in 20 mM sodium phosphate buffer (pH 6.5) to a final concentration of 2 mM. The lipid was solubilized by shaking in a 2 mL Eppendorf tube on a Thermomixer compact (Eppendorf) at 45 °C, 1400 rpm for 3 h. The solution was then freeze–thawed five times using dry ice and a thermomixer (45 °C, 500 rpm). Vesicle formation was completed by sonication, using a Bandelin Sonopuls sonicator equipped with a TS102 probe, set to 20% amplitude, for 15 cycles (30 s on/30 s off). Vesicles were freshly prepared on the day of use. The SUVs prepared have an average diameter of approximately 30–40 nm, as characterized by dynamic light scattering (DLS) as previously described. This corresponds to vesicle concentrations in the low micromolar range.
Lipid-induced aggregation experiments were monitored using a CLARIOstar fluorescence microplate reader (BMG Labtech) under quiescent conditions (no shaking) at 30 °C. Experiments were conducted in black, clear-bottom 96-well half-area polystyrene plates with a nonbinding surface (Corning #3881), sealed with aluminum Thermowell sealing tape (Corning #6570). Each well contained 100 μL of reaction volume, run in triplicate, comprising 100 μM αS, 50 μM ThT, 50 μM DMPS (monomeric equivalent), 0.01% sodium azide, and varying concentrations of peptide (0 μM to 1 mM), all in 20 mM phosphate buffer (pH 6.5).
Instrument settings included a focal height of 4.9 mm and a gain of 800, with an excitation filter of 440 ± 15 nm, an emission filter of 480 ± 15 nm, and a 460 nm dichroic cutoff. Readings were collected from the bottom optic using a spiral averaging (4 mm diameter) with 50 flashes per well, and measurements were taken every 1200 s. The outer wells of the plate were not used to avoid evaporation

[2] = Peptide stability in human serum; type: in vitro ADME; conditions: normal human serum, 30 μM peptide, 37 °C, analytical HPLC peak area normalized to t = 0, triplicate; read-out: Peptide remaining intact in human serum at 48 h
Description: Serum stability assays were performed in normal human serum. Peptide stocks were initially prepared at 600 μM in H2O, and 75 μL of this stock was added to 1425 μL of normal human serum (Merck), yielding a final concentration of 30 μM. Samples were incubated at 37 °C, and 100 μL aliquots were collected at designated time points (0, 1, 2, 3, 4, 6, 22, 24, and 48 h) and then immediately stored at −80 °C. After all time points, the samples were thawed and mixed with 300 μL of acetonitrile:water (3:1, v/v) by vortexing to ensure complete mixing. Following centrifugation at 14500 rpm for 20 min, 200 μL of the supernatant was analyzed by HPLC using a Phenominex Luna 5 μm C18 100 Å analytical column, eluted with a 0–50% acetonitrile gradient containing 0.1% TFA. Peak areas were integrated and normalized to the 0-h sample. Each peptide was tested in triplicate.

SH-SY5Y cells [3] = assay: Alamar Blue toxicity assay; type: cell-based, human; conditions: 0–20 μM RhoB-labeled peptide, 30–36 h, relative to untreated controls
Description: (§1) SH-SY5Y cells were plated at a density of 5,000 cells well^–1 in a half-area 96-well plate. Twenty-four hours after plating, the media was removed and replaced with media containing 10 or 20 μM of rhodamine-B labeled peptide or the equivalent volume of PBS. Cells were incubated with peptides for a further 30–36 h. As a positive control for cell lysis, 3 wells of cells were treated with 5% Triton-X 100 for 20 min, and then 20 μL of media was harvested from all wells for ToxiLight analysis according to the manufacturer’s instructions (Lonza Biologics PLC, LT07–217). Cells were then washed once with PBS and incubated for 90 min with a 1:10 dilution of AlamarBlue reagent (Invitrogen, DAL1025). Media was harvested and the fluorescence measured according to the manufacturer’s instructions. Cells were then washed twice with PBS and incubated with a 1:12.5 dilution of NucBlue (ThermoFisher Scientific, R37605) and a 1:500 dilution of CellTracker Deep Red (Invitrogen, C34565) in media for a further 30 min. Cells were then washed 2 more times in PBS and imaged.

SH-SY5Y cells [4] = assay: ToxiLight toxicity assay; type: cell-based, human; conditions: 0–20 μM RhoB-labeled peptide, 30–36 h, Triton X-100 positive control
Description: as §1

N2 C. elegans = conditions: dosed at L4, 0–100 μM, day 5 of adulthood
Description: The C. elegans strain N2 was used as the control, while the transgenic strain NL5901 (unc-54p::αS::YFP), which expresses αS fused to YFP in the body wall muscle cells, was used to model the PD motility phenotype. Worms were synchronized by bleaching with sodium hypochlorite, and the eggs were resuspended in M9 buffer and incubated overnight at 20 °C with shaking (50 rpm) to hatch. Larvae were then transferred to nematode growth medium (NGM) agar plates seeded with E. coli OP50 as a food source and incubated in the dark at 20 °C until they reached the L4 stage.
L4-stage worms were transferred to fresh NGM agar plates containing 75 μM 5-fluoro-2’deoxyuridine (FUdR), to prevent reproduction, and seeded with E. coli OP50 as a food source. […] Nematodes were incubated in the dark at 20 °C for 5 days. Following incubation, 15 worms per condition were picked using a worm pick and placed in a drop of M9 media on a microscope slide. Movements were recorded immediately for a period of 30 s. For each condition, 5 worms per video were manually scored for the number of body bends per minute. […] A body bend was defined as a full oscillation, where the head returned to a point on the same side.

Compound	Fractional helicity (fH) with DMPS [1] [%]	Fractional helicity (fH) no DMPS [1] [%]	Effect on lipid-induced αS1–140 aggregation (ThT) (αS1–140)	helicity (circular dichroism) [%]	remaining at 48 h, 30 μM [2] [%]	Cytotoxicity, Alamar Blue (SH-SY5Y cells [3])	Cytotoxicity, ToxiLight (SH-SY5Y cells [4])	Thrashing rate of wild-type N2 worms (N2 C. elegans)
CSCC[C@H](NC(=O)[C@H](Cc1ccccc1)NC(=O)[C@@H](NC(=O)[C@H](CC(=O)O)NC(C)=O)C(C)C)C(=O)N[C@@H](CCCCN)C(=O)NCC(=O)N[C@@H](CC(C)C)C(=O)N[C@@H](CO)C(=O)N[C@@H](CCCCN)C(=O)N[C@@H](C)C(=O)N[C@@H](CCCCN)C(N)=O (Ac-DVFMKGLSKAK-NH2)				8.1				
CSCC[C@@H]1NC(=O)[C@H](Cc2ccccc2)NC(=O)[C@H](C(C)C)NC(=O)[C@@H](NC(C)=O)CCCCNC(=O)C[C@@H](C(=O)NCC(=O)N[C@@H](CC(C)C)C(=O)N[C@@H](CO)C(=O)N[C@@H](CCCCN)C(=O)N[C@@H](C)C(=O)N[C@@H](CCCCN)C(N)=O)NC1=O [αS2–12(L1)] (Ac-KVFMDGLSKAK-NH2; lactam 1-5)	0.0	0.0	enhanced αS aggregation					
CSCC[C@@H]1NC(=O)[C@H](Cc2ccccc2)NC(=O)[C@@H](NC(=O)[C@H](CC(=O)O)NC(C)=O)CCCCNC(=O)C[C@@H](C(=O)N[C@@H](CC(C)C)C(=O)N[C@@H](CO)C(=O)N[C@@H](CCCCN)C(=O)N[C@@H](C)C(=O)N[C@@H](CCCCN)C(N)=O)NC(=O)[C@H](CCCCN)NC1=O [αS2–12(L2)] (Ac-DKFMKDLSKAK-NH2; lactam 2-6)	14.5	30.9	most effective inhibition					
CSCC[C@@H]1NC(=O)[C@@H](NC(=O)[C@@H](NC(=O)[C@H](CC(=O)O)NC(C)=O)C(C)C)CCCCNC(=O)C[C@@H](C(=O)N[C@@H](CO)C(=O)N[C@@H](CCCCN)C(=O)N[C@@H](C)C(=O)N[C@@H](CCCCN)C(N)=O)NC(=O)CNC(=O)[C@H](CCCCN)NC1=O [αS2–12(L3)] (Ac-DVKMKGDSKAK-NH2; lactam 3-7)	2.9	14.6	most effective inhibition; also recorded: greatest inhibition of αS1–140 aggregation					
CC(=O)N[C@@H](CC(=O)O)C(=O)N[C@H](C(=O)N[C@@H](Cc1ccccc1)C(=O)N[C@H]1CCCCNC(=O)C[C@@H](C(=O)N[C@@H](CCCCN)C(=O)N[C@@H](C)C(=O)N[C@@H](CCCCN)C(N)=O)NC(=O)[C@H](CC(C)C)NC(=O)CNC(=O)[C@H](CCCCN)NC1=O)C(C)C [αS2–12(L4)] (Ac-DVFKKGLDKAK-NH2; lactam 4-8)	27.7	12.4	enhanced αS aggregation					
CSCC[C@H](NC(=O)[C@H](Cc1ccccc1)NC(=O)[C@@H](NC(=O)[C@H](CC(=O)O)NC(C)=O)C(C)C)C(=O)N[C@@H](CCCCN)C(=O)N[C@H]1CCCCNC(=O)C[C@@H](C(=O)N[C@@H](CCCCN)C(N)=O)NC(=O)[C@H](CCCCN)NC(=O)[C@H](CO)NC(=O)[C@H](CC(C)C)NC1=O [αS2–12(L6)] (Ac-DVFMKKLSKDK-NH2; lactam 6-10)				31.4	16	No significant toxicity	No significant toxicity	no change in thrashing rate

The next lines start with results.

Fractional helicity (fH) with DMPS [1] [%]	Fractional helicity (fH) no DMPS [1] [%]	Effect on lipid-induced αS1–140 aggregation (ThT) (αS1–140)	Compound	helicity (circular dichroism) [%]	remaining at 48 h, 30 μM [2] [%]	Cytotoxicity, Alamar Blue (SH-SY5Y cells [3])	Cytotoxicity, ToxiLight (SH-SY5Y cells [4])	Thrashing rate of wild-type N2 worms (N2 C. elegans)
3.3	28.9		CSCC[C@H](NC(=O)[C@H](Cc1ccccc1)NC(=O)[C@@H](NC(=O)[C@H](CC(=O)O)NC(C)=O)C(C)C)C(=O)N[C@H]1CCCCNC(=O)C[C@@H](C(=O)N[C@@H](C)C(=O)N[C@@H](CCCCN)C(N)=O)NC(=O)[C@H](CO)NC(=O)[C@H](CC(C)C)NC(=O)CNC1=O [αS2–12(L5)] (Ac-DVFMKGLSDAK-NH2; lactam 5-9)					
16.8	15.8	enhanced αS aggregation	CSCC[C@H](NC(=O)[C@H](Cc1ccccc1)NC(=O)[C@@H](NC(=O)[C@H](CC(=O)O)NC(C)=O)C(C)C)C(=O)N[C@@H](CCCCN)C(=O)NCC(=O)N[C@H]1CCCCNC(=O)C[C@@H](C(N)=O)NC(=O)[C@H](C)NC(=O)[C@H](CCCCN)NC(=O)[C@H](CO)NC1=O [αS2–12(L7)] (Ac-DVFMKGKSKAD-NH2; lactam 7-11)					
